Results on ten compounds are retold here after patent US11691989B2, “Macrocyclic indoles as Mcl-1 inhibitors” (ASCENTAGE PHARMA (SUZHOU) CO., LTD., priority 2018, dated 2023).

≈ marks a conversion by molar mass, not a printed value.

Data set [1] addresses Mcl-1 protein (residues 171-323) (Homo sapiens (Human), UniProt Q07820). Description: Inhibition of Mcl-1 by fluorescence polarization (FP) competitive binding assay with FAM-Bid tracer. Conditions: 2 nM FAM-Bid, 20 nM Mcl-1, 30 min, read-out: Mc1-1 (FP). In outline: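 Competitive FP binding of compounds against FAM-Bid tracer (final 2 nM) on Mcl-1 (final 20 nM) in PBS with 0.01% BGG and 0.01% Triton X-100, 5% final DMSO.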
For orientation: In fluorescence polarisation assays a small probe gives low polarisation when free and higher when bound to something large.

Data set [2] concerns OPM-2 cells. Description: Cell viability assay (OPM-2 cells), CCK-8. Format: cell-based. As to conditions: 5% FBS. In outline: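 OPM-2 myeloma cells (20000/well) incubated with serially diluted compound for 24 h at 37 °C, 5% CO2. Viability read by CCK-8 (4 h) absorbance at 450 nm, normalised to vehicle; IC50 from nonlinear regression.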
Data set [3] relates to NCI-H929 cells. Briefly: Cell viability assay (NCI-H929 cells), CCK-8. Format: cell-based. As to conditions: 5% FBS. In short, it runs like this: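 NCI-H929 cells (20000/well) exposed to serially diluted compounds for 24 h at 37 °C, 5% CO2. Viability by CCK-8, absorbance at 450 nm after 1-4 h, normalized to vehicle-treated cells. IC50 by nonlinear regression.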
Data set [4] in a line: Kinetic solubility assay in PBS buffer. Format: physicochemical. As to conditions: for solubility: PBS buffer, pH 6.5, aqueous buffer, thermodynamic from solid, read-out: Solubility (pH 6.5, μg/mL). The procedure:
Representative Compounds of the Disclosure were tested in a kinetic solubility assay in PBS buffer. PBS buffer was prepared by dissolving 4.86 g of potassium dihydrogen phosphate and 5.09 g of disodium hydrogen phosphate dodecahydrate in 1 L of ultrapure water (final pH 6.5). 0.5 mg of test sample was dissolved in 1 mL of methanol and the stock solution was transferred into 2 mL EP tube, and evaporated at 50° C. for 3 h. To the tube was added 1 mL of PBS buffer and the mixture was stirred and shaken for 1-2 h. The solution was allowed to stand overnight and then filtered before HPLC analysis. Another 1.5 mg of the sample was dissolved in 3 mL of methanol to prepare a calibration curve with a series of concentration range of 5-500 μM. The solubility of each sample was determined by the measured peak area in HPLC.

The nature of data set [5]: Microsome clearance assay, mouse. Format: in vitro ADME. As to conditions: 0.5 mg/ml protein, 1 mM NADPH, 60 minutes; for microsomal CLint at 5 μM: male, CD-1, mouse, pooled liver microsomes, pH 7.4, mouse liver microsomes, read-out: Mouse Liver Microsome Clint (μL/min/mg protein); for Mouse Liver Microsome Clint (μL/min/mg protein): mouse liver microsomes, 5 μM. In short, it runs like this: (§1)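 Pooled liver microsomes (human, male Wistar rat, male CD-1 mouse) at 0.5 mg/ml protein in 0.1M sodium phosphate pH 7.4 with 5 μM test compound and 1 mM NADPH, incubated 60 minutes. Reactions quenched in ice-cold methanol; supernatant analysed by LC/MS/MS (electrospray).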
(Liver microsomes are a subcellular fraction often used to study metabolism.)

Data set [6] is described as follows: Microsome clearance assay, rat. Format: in vitro ADME. Conditions: 0.5 mg/ml protein, 1 mM NADPH, 60 minutes; for microsomal CLint at 5 μM: male, Wister, rat, pooled liver microsomes, pH 7.4, rat liver microsomes, read-out: Rat Liver Microsome Clint (μL/min/mg protein). In outline: as §1
Data set [7] can be described thus: Microsome clearance assay, human. Format: in vitro ADME. As to conditions: 0.5 mg/ml protein, 1 mM NADPH, 60 minutes; for microsomal CLint at 5 μM: human, pooled liver microsomes, pH 7.4, human liver microsomes, read-out: Human Liver Microsome Clint (μL/min/mg protein). In short, it runs like this: as §1

Chain of Mcl-1 protein (residues 171-323) (Q07820 171-323): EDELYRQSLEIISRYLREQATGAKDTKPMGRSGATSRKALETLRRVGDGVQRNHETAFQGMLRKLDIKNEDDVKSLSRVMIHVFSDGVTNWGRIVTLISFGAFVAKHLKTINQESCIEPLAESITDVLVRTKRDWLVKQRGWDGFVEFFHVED

Turning to `Cc1c2c(nn1C)CSCc1cc(n(C)n1)CSc1cc(c3ccccc3c1)OCCCn1c(C(=O)O)c(Cl)c3c-2c(Cl)ccc31` [Cpd. No. 9, (Z)-1^3,1^5-dichloro-2^1,2^5,6^1-trimethyl-1^1H,2^1H,6^1H-10-oxa-4,8-dithia-1(4,1)-indola-2(4,3),6(3,5)-dipyrazola-9(3,1)-naphthalenacyclotridecaphane-1^2-carboxylic acid], the IC50 in data set [1] amounted to 14 nM; in data set [2] (Homo sapiens, OPM-2, 24 h), 1250 nM; in data set [3] (Homo sapiens, NCI-H929, 24 h), 479 nM. Also, the solubility in data set [4] was more than 400 µg/mL.

For the compound `COCCn1nc2c(c1C)-c1c(Cl)ccc3c1c(C)c(C(=O)O)n3CCCOc1cc(cc3ccccc13)SCc1cc(nn1C)CSC2` [Cpd. No. 11, (Z)-1^5-chloro-2^1-(2-methoxyethyl)-1^3,2^5,6^1-trimethyl-1^1H,2^1H,6^1H-10-oxa-4,8-dithia-1(4,1)-indola-2(4,3),6(3,5)-dipyrazola-9(3,1)-naphthalenacyclotridecaphane-1^2-carboxylic acid], the IC50 in data set [1] turned out to be 15 nM; in data set [2] (Homo sapiens, OPM-2, 24 h) it was 171 nM; in data set [3] (Homo sapiens, NCI-H929, 24 h), 68 nM. Moreover, the microsomal CLint at 5 μM was 145 µL/min/mg in data set [5], 35.4 µL/min/mg in data set [6] and 39.6 µL/min/mg in data set [7]. Also, in data set [4], the solubility was less than 1 µg/mL.

As to `Cc1c(C(=O)O)n2c3ccc(Cl)c(c13)-c1c(nn(C)c1C)CN(Cc1ncco1)Cc1cc(n(C)n1)CSc1cc(c3ccc(F)cc3c1)OCCC2` [Cpd. No. 52, (Z)-1^5-chloro-9^6-fluoro-1^3,2^1,2^5,6^1-tetramethyl-4-(oxazol-2-ylmethyl)-1^1H,2^1H,6^1H-10-oxa-8-thia-4-aza-1(4,1)-indola-2(4,3),6(3,5)-dipyrazola-9(3,1)-naphthalenacyclotridecaphane-1^2-carboxylic acid], the IC50 was determined as 21 nM in data set [1]; 699 nM in data set [2] (Homo sapiens, OPM-2, 24 h); 87 nM in data set [3] (Homo sapiens, NCI-H929, 24 h). The figures for the microsomal CLint at 5 μM in data set [5], in data set [6] and in data set [7] were 53 µL/min/mg, 29.8 µL/min/mg and 28.4 µL/min/mg, respectively. In data set [4], the solubility stood at 4 µg/mL (≈ 5.3 µM).

Regarding `Cc1c(C(=O)O)n2c3ccc(Cl)c(c13)-c1c(nn3c1CCC3)CSCc1cc(n(C)n1)CSc1cc(c3ccc(F)cc3c1)OCCC2` [Cpd. No. 2, (Z)-1^5-chloro-9^6-fluoro-1^3,6^1-dimethyl-2^5,2^6-dihydro-1^1H,2^4H,6^1H-10-oxa-4,8-dithia-1(4,1)-indola-2(3,2)-pyrrolo[1,2-b]pyrazola-6(3,5)-pyrazola-9(3,1)-naphthalenacyclotridecaphane-1^2-carboxylic acid], the IC50 turned out to be 14 nM in data set [1]; 220 nM in data set [2] (Homo sapiens, OPM-2, 24 h); 53 nM in data set [3] (Homo sapiens, NCI-H929, 24 h). Moreover, the microsomal CLint at 5 μM in data set [5] turned out to be 53 µL/min/mg; in data set [6], 31.2 µL/min/mg; in data set [7] it was 18.2 µL/min/mg. Besides, the solubility in data set [4] is less than 1 µg/mL.

Regarding `Cc1c(C(=O)O)n2c3ccc(Cl)c(c13)-c1c(nn(C)c1C(F)F)CN(S(C)(=O)=O)Cc1cc(n(C)n1)CSc1cc(c3ccc(F)cc3c1)OCCC2` [Cpd. No. 45, (Z)-1^5-chloro-2^5-(difluoromethyl)-9^6-fluoro-1^3,2^1,6^1-trimethyl-4-(methylsulfonyl)-1^1H,2^1H,6^1H-10-oxa-8-thia-4-aza-1(4,1)-indola-2(4,3),6(3,5)-dipyrazola-9(3,1)-naphthalenacyclotridecaphane-1^2-carboxylic acid], the IC50 was determined as 16 nM in data set [1]; 350 nM in data set [2] (Homo sapiens, OPM-2, 24 h); 253 nM in data set [3] (Homo sapiens, NCI-H929, 24 h). The microsomal CLint at 5 μM in data set [5] is 21.4 µL/min/mg; in data set [6], 12.6 µL/min/mg; in data set [7] it was less than 2.8 µL/min/mg. Besides, the solubility in data set [4] is 94 µg/mL (≈ 119 µM).

In the case of `Cc1c(C(=O)O)n2c3ccc(Cl)c(c13)-c1c(nn(C)c1C)CSCc1cc(n(C)n1)CSc1cc(c3ccccc3c1)OCCC2` (atropisomer, axis not shown) [Cpd. No. 7, (S)-(Z)-1^5-chloro-1^3,2^1,2^5,6^1-tetramethyl-1^1H,2^1H,6^111-10-oxa-4,8-dithia-1(4,1)-indola-2(4,3),6(3,5)-dipyrazola-9(3,1)-naphthalenacyclotridecaphane-1^2-carboxylic acid], the figures for the IC50 in data set [1], in data set [2] (24 hours) and in data set [3] (24 hrs) were more than 1000 nM, more than 10000 nM and 7440 nM, respectively. Also, the “Mouse Liver Microsome Clint (μL/min/mg protein)” value in data set [5] was determined as 245 μL/min/mg protein. Moreover, the “Rat Liver Microsome Clint (μL/min/mg protein)” value in data set [6] (rat liver microsomes, 5 μM) turned out to be 111 μL/min/mg protein. In data set [7] (human liver microsomes, 5 μM), the “Human Liver Microsome Clint (μL/min/mg protein)” value is 38.0 μL/min/mg protein. For the same compound, the “Solubility (pH 6.5, μg/mL)” value in data set [4] (PBS buffer pH 6.5) is reported as 6 μg/mL.

With `CNC(=O)Cn1nc(C)c2c1CSCc1cc(n(C)n1)CSc1cc(c3ccccc3c1)OCCCn1c(C(=O)O)c(C)c3c-2c(Cl)ccc31` [Cpd. No. 26, (Z)-1^5-chloro-1^3,2^3,6^1-trimethyl-2^1-(2-(methylamino)-2-oxoethyl)-1^1H,2^1H,6^1H-10-oxa-4,8-dithia-1(4,1)-indola-2(4,5),6(3,5)-dipyrazola-9(3,1)-naphthalenacyclotridecaphane-1^2-carboxylic acid], the IC50 in data set [1] worked out at 14 nM; in data set [2] (Homo sapiens, OPM-2, 24 h), 992 nM; in data set [3] (Homo sapiens, NCI-H929, 24 h), 300 nM. In addition, the microsomal CLint at 5 μM in data set [5] is 41.2 µL/min/mg; in data set [6] it was 14.2 µL/min/mg; in data set [7], 12.8 µL/min/mg. Besides, in data set [4], the solubility is less than 1 µg/mL.

Take `Cc1c(C(=O)O)n2c3ccc(Cl)c(c13)-c1c(nn3c1COCC3)CSCc1cc(n(C)n1)CSc1cc(c3ccc(F)cc3c1)OCCC2` [Cpd. No. 4, (Z)-1^5-chloro-9^6-fluoro-1^3,6^1-dimethyl-2^6,2^7-dihydro-1^1H,24H,6^1H-10-oxa-4,8-dithia-2(3,2)-pyrazolo[5,1-c][1,4]oxazina-1(4,1)-indola-6(3,5)-pyrazola-9(3,1)-naphthalenacyclotridecaphane-1^2-carboxylic acid]: the IC50 in data set [1] is 14 nM; in data set [2] (Homo sapiens, OPM-2, 24 h) it was 438 nM; in data set [3] (Homo sapiens, NCI-H929, 24 h) it was 49 nM. The microsomal CLint at 5 μM in data set [5] turned out to be 41.2 µL/min/mg; in data set [6], 19.8 µL/min/mg; in data set [7] it was 13.8 µL/min/mg. Also, the solubility in data set [4] is less than 1 µg/mL.

Turning to `Cc1c(C(=O)O)n2c3ccc(Cl)c(c13)-c1c(nn(C)c1C)CN(S(C)(=O)=O)Cc1cc(n(C)n1)CSc1cc(c3ccc(F)cc3c1)OCCC2` [Cpd. No. 32, (Z)-1^5-chloro-9^6-fluoro-1^3,2^1,2^5,6^1-tetramethyl-4-(methylsulfonyl)-1^1-H,2^1H, 6′H-10-oxa-8-thia-4-aza-1(4,1)-indola-2(4,3),6(3,5)-dipyrazola-9(3,1)-naphthalenacyclotridecaphane-1^2-carboxylic acid], the IC50 in data set [1] came out at 36 nM; in data set [2] (24 hours) it was 542 nM; in data set [3] (24 hrs) it was 213 nM. Further, the “Mouse Liver Microsome Clint (μL/min/mg protein)” value in data set [5] turned out to be 35.0 μL/min/mg protein. The microsomal CLint at 5 μM in data set [6] was 10.8 µL/min/mg; in data set [7], 4.4 µL/min/mg. For the same compound, the solubility in data set [4] was more than 400 µg/mL.

Consider `Cc1c(C(=O)O)n2c3ccc(Cl)c(c13)-c1c(nn3c1CC(C)(C)C3)CSCc1cc(n(C)n1)CSc1cc(c3ccc(F)cc3c1)OCCC2` [Cpd. No. 3, (Z)-1^5-chloro-9^6-fluoro-1^3,2^5,2^5,6^1-tetramethyl-2^5,2^6-dihydro-1^1H,2^4H,6^1H-10-oxa-4,8-dithia-1(4,1)-indola-2(3,2)-pyrrolo[1,2-b]pyrazola-6(3,5)-pyrazola-9(3,1)-naphthalenacyclotridecaphane-1^2-carboxylic acid], for which the IC50 in data set [1] was 14 nM; in data set [2] (Homo sapiens, OPM-2, 24 h), 386 nM; in data set [3] (Homo sapiens, NCI-H929, 24 h), 391 nM. Also, the solubility in data set [4] is less than 1 µg/mL.
